According to PubChem BioAssay (NCI):
Several values for one entry are separate records, joined by “and”; a condition that tells them apart may be missing. Equal entries are not always repeated.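 Dose response: 5 concentrations. Exposure: 48 h. Format: 96-well plates. Endpoint: linear interpolation; highest concentration if not reached. Here, GI50 denotes the concentration required for 50% inhibition of growth. TGI: concentration producing complete growth inhibition.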

How the values were obtained:
Experiment in all cases: NCI tumour cell line growth inhibition, 48 h
NCI-H23 lung = tested on: NCI-H23 lung
DMS 114 small cell lung = tested on: DMS 114 small cell lung
HS 578T breast = tested on: HS 578T breast
SW-620 colon = tested on: SW-620 colon
CCRF-CEM leukemia = tested on: CCRF-CEM leukemia
HT29 colon = tested on: HT29 colon
ACHN renal = tested on: ACHN renal
UO-31 renal = tested on: UO-31 renal
T-47D breast = tested on: T-47D breast
SK-MEL-28 melanoma = tested on: SK-MEL-28 melanoma
EKVX NSCLC = tested on: EKVX NSCLC
SK-MEL-2 melanoma = tested on: SK-MEL-2 melanoma
SN12K1 renal = tested on: SN12K1 renal
OVCAR-5 ovarian = tested on: OVCAR-5 ovarian
SNB-19 CNS = tested on: SNB-19 CNS
SF-295 CNS = tested on: SF-295 CNS
CAKI-1 renal = tested on: CAKI-1 renal
M14 melanoma = tested on: M14 melanoma
UACC-257 melanoma = tested on: UACC-257 melanoma
RPMI-8226 leukemia = tested on: RPMI-8226 leukemia
DLD-1 colon = tested on: DLD-1 colon
HOP-92 NSCLC = tested on: HOP-92 NSCLC
IGROV1 ovarian = tested on: IGROV1 ovarian
SF-268 CNS = tested on: SF-268 CNS
KM12 colon = tested on: KM12 colon
NCI-H522 lung = tested on: NCI-H522 lung
SNB-78 CNS = tested on: SNB-78 CNS
HOP-18 NSCLC = tested on: HOP-18 NSCLC
MDA-MB-231 breast = tested on: MDA-MB-231 breast
SF-539 CNS = tested on: SF-539 CNS
RXF 393 renal = tested on: RXF 393 renal
A549 NSCLC = tested on: A549 NSCLC
COLO 205 colon = tested on: COLO 205 colon
MOLT-4 leukemia = tested on: MOLT-4 leukemia
NCI-H226 lung = tested on: NCI-H226 lung
OVCAR-4 ovarian = tested on: OVCAR-4 ovarian
NCI/ADR-RES ovarian = tested on: NCI/ADR-RES ovarian
SN12C renal = tested on: SN12C renal
SNB-75 CNS = tested on: SNB-75 CNS
HCT-116 colon = tested on: HCT-116 colon
A498 renal = tested on: A498 renal
XF 498 CNS = tested on: XF 498 CNS
M19-MEL melanoma = tested on: M19-MEL melanoma
MALME-3M melanoma = tested on: MALME-3M melanoma
MCF7 breast = tested on: MCF7 breast
HOP-62 NSCLC = tested on: HOP-62 NSCLC
NCI-H460 lung = tested on: NCI-H460 lung
K-562 leukemia = tested on: K-562 leukemia
786-0 renal = tested on: 786-0 renal
PC-3 prostate = tested on: PC-3 prostate
HL-60(TB) leukemia = tested on: HL-60(TB) leukemia
HCC-2998 colon = tested on: HCC-2998 colon
MDA-MB-435 = tested on: MDA-MB-435
MDA-N = tested on: MDA-N
UACC-62 melanoma = tested on: UACC-62 melanoma
OVCAR-3 ovarian = tested on: OVCAR-3 ovarian
SK-MEL-5 melanoma = tested on: SK-MEL-5 melanoma
U251 CNS = tested on: U251 CNS
KM20L2 colon = tested on: KM20L2 colon
OVCAR-8 ovarian = tested on: OVCAR-8 ovarian
TK-10 renal = tested on: TK-10 renal
HCT-15 colon = tested on: HCT-15 colon
P388/ADR leukemia = tested on: P388/ADR leukemia

## C=C1C(O)C2(O)OCC34C(CC5C(C)=CC(=O)C(O)C5(C)C23)OC(=O)C(OC(=O)C/C=C(\C)CCCCC)C14 (stereo not drawn)
NCI-H23 lung
  GI50: < 1 nM
DMS 114 small cell lung
  TGI: 16.1 nM
HS 578T breast
  TGI: < 1 nM
SW-620 colon
  GI50: < 1 nM
  TGI: 15.8 nM and 119 nM and 26 nM
CCRF-CEM leukemia
  GI50: < 1 nM
HT29 colon
  GI50: < 1 nM
ACHN renal
  TGI: 8.56 nM and 51.8 nM
UO-31 renal
  GI50: 48.3 nM and 258 nM
  TGI: 269 nM and 1210 nM and 220 nM
T-47D breast
  TGI: < 1 nM
SK-MEL-28 melanoma
  GI50: < 1 nM
EKVX NSCLC
  GI50: 47.9 nM
SK-MEL-2 melanoma
  GI50: 1.13 nM
  TGI: 9.85 nM and 42 nM
SN12K1 renal
  TGI: 16 nM
OVCAR-5 ovarian
  GI50: 2.2 nM
SNB-19 CNS
  GI50: < 1 nM
SF-295 CNS
  GI50: 1.3 nM
  TGI: 5.67 nM and 24.5 nM and 17.4 nM
CAKI-1 renal
  GI50: 27.4 nM and 87.5 nM
M14 melanoma
  TGI: 1.41 nM
UACC-257 melanoma
  GI50: < 1 nM
RPMI-8226 leukemia
  GI50: < 1 nM
DLD-1 colon
  TGI: 159 nM
HOP-92 NSCLC
  GI50: 1.57 nM
  TGI: 6.64 nM and 19.5 nM and 23.4 nM
IGROV1 ovarian
  GI50: < 1 nM
SF-268 CNS
  GI50: < 1 nM
KM12 colon
  GI50: < 1 nM
  TGI: 20.1 nM and 19 nM and 34.2 nM
NCI-H522 lung
  GI50: < 1 nM
SNB-78 CNS
  TGI: 37.3 nM
HOP-18 NSCLC
  TGI: 1100 nM
MDA-MB-231 breast
  GI50: 30.2 nM
  TGI: 21.8 nM and 162 nM
SF-539 CNS
  GI50: < 1 nM
RXF 393 renal
  GI50: < 1 nM
  TGI: 3.51 nM and 24.5 nM
A549 NSCLC
  GI50: 1.37 nM
  TGI: 23.3 nM and 69.8 nM and 53.5 nM
COLO 205 colon
  GI50: 1.23 nM
  TGI: 8.12 nM and 20.6 nM and 27.2 nM
MOLT-4 leukemia
  GI50: < 1 nM
NCI-H226 lung
  GI50: < 1 nM
OVCAR-4 ovarian
  GI50: < 1 nM
NCI/ADR-RES ovarian
  GI50: 387 nM and 1460 nM
  TGI: 4220 nM and 6420 nM and 11500 nM
SN12C renal
  GI50: 1.57 nM
SNB-75 CNS
  GI50: < 1 nM
  TGI: 3.66 nM and 27.8 nM
HCT-116 colon
  GI50: < 1 nM
A498 renal
  GI50: 2.49 nM and 22.3 nM
  TGI: 9.41 nM and 57 nM and 25.5 nM
XF 498 CNS
  TGI: 23.2 nM
M19-MEL melanoma
  TGI: 17.3 nM
MALME-3M melanoma
  GI50: < 1 nM
  TGI: < 1 nM
MCF7 breast
  GI50: < 1 nM
HOP-62 NSCLC
  GI50: < 1 nM
NCI-H460 lung
  GI50: < 1 nM
K-562 leukemia
  GI50: < 1 nM
786-0 renal
  TGI: 6.81 nM and 24.4 nM
PC-3 prostate
  TGI: 3.2 nM and 14.1 nM
HL-60(TB) leukemia
  GI50: < 1 nM
HCC-2998 colon
  GI50: < 1 nM
  TGI: 2.22 nM and 19 nM
MDA-MB-435
  TGI: 2.21 nM
MDA-N
  TGI: 2.29 nM and 17.9 nM
UACC-62 melanoma
  GI50: < 1 nM
OVCAR-3 ovarian
  GI50: < 1 nM
  TGI: < 1 nM
SK-MEL-5 melanoma
  GI50: < 1 nM
  TGI: < 1 nM
U251 CNS
  GI50: < 1 nM
KM20L2 colon
  TGI: 199 nM
OVCAR-8 ovarian
  GI50: < 1 nM
  TGI: 5.65 nM and 19.2 nM and 18.8 nM
TK-10 renal
  GI50: 23.9 nM
  TGI: 11.9 nM and 86.5 nM
HCT-15 colon
  GI50: 9.53 nM and 43.4 nM
  TGI: 50.3 nM and 352 nM and 151 nM
P388/ADR leukemia
  TGI: 454 nM
